Measurements published in US12240844B2 (Voronoi, Inc., priority 2019, dated 2025).

How the values were obtained:
[1] = biological target: LRRK2 (Homo sapiens, UniProt Q5S007); assay: LRRK2 enzyme inhibition, ADP-Glo kinase assay; type: biochemical; parameters: purchased Invitrogen PR8604B
How it was run: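 Purified human LRRK2 (25 ng) in 40 mM Tris-HCl pH7.4, 20 mM MgCl2, 0.5 mg/ml BSA, 50 μM DTT with 10 μM ATP and substrate ([…]), 2 h at 25° C. Final compound 50 to 0.000001024 μM, 12-point dilution. ADP-Glo luminescence vs solvent control; IC50 (nM).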

[2] = biological target: T1, human GST-DYRK1A (full length) (Homo sapiens, UniProt Q13627); assay: GST-DYRK1A enzyme inhibition, ADP-Glo kinase assay; type: biochemical; details: read-out: DYRK1 IC50
T1 construct: purified human GST-DYRK1A (full length, Thermo scientifics) enzyme; GST; purchased Thermo scientifics
How it was run: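 Full-length human GST-DYRK1A (10 ng) incubated with 10 uM ATP and specific substrate for 1 h at 25° C in 40 mM Tris-HCl pH 7.4, 20 mM MgCl2, 0.5 mg/mL BSA, 50 uM DTT. ADP formation read by ADP-Glo luminescence; IC50 (nM) versus solvent control, triplicate.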

[3] = biological target: T2, human GST-CLK1 (129-end) (Homo sapiens, UniProt P49759); assay: GST-CLK1 enzyme inhibition, ADP-Glo kinase assay; type: biochemical; details: ATP 10 uM
T2 construct: purified human GST-CLK1 (129-end, Signalchem) enzyme; GST; purchased Signalchem
How it was run: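 GST-CLK1 (129-end, 3 ng) reacted with 10 uM ATP and substrate in 40 mM Tris-HCl pH 7.4, 20 mM MgCl2, 0.5 mg/mL BSA, 50 uM DTT, 1 h at 25° C. ADP-Glo luminescence normalised to solvent control; IC50 from triplicate data.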

[4] = system: MDA-MB-231 cell line; assay: MDA-MB-231 cancer cell proliferation inhibition (Cell Titer-Glo); type: cell-based; details: Homo sapiens, MDA-MB-231 triple-negative breast cancer cell line, 72 hours
Procedure: In order to evaluate the cancer cell proliferation inhibitory activity of the compounds of the present invention, the following experiments were performed.
To evaluate the cancer cell proliferation inhibitory effect, the cell growth rate analysis was performed while culturing MDA-MB-231 cell line (Korean Cell Line Bank #30026) and MDA-MB-468 cell line as the triple-negative breast cancer cell line, and SHP-77 (ATCC #CRL-2195) as the small cell lung cancer cell line in DMEM (HyClone #SH30243) and RPMI medium (HyClone #SH3027.01), respectively. More specifically, the cell lines were each plated at 2000 cells/100 μl in each well of a 96-well flat-bottom plate (coming #3903), and then the example compounds having eleven concentrations which were diluted by ⅓ so that the final concentrations were 10.000000, 3.333333, 1.111111, 0.370370, 0.123457, 0.041152, 0.013717, 0.004572, 0.001524, 0.000508 and 0.000169 μM were treated. After 72 hours, 100 μl of Cell Titer-Glo (Promega G7573) was treated, incubated at RT for 10 minutes, and then luminescence was measured using a microplate reader. The measured luminescence degree was calculated as GI50 using Prism (version 8.2 GraphPad) software.
In the table below, the following designations were used for the evaluation of proliferation inhibitory activity.

[5] = biological target: LRRK2 (G2019S) (Homo sapiens, UniProt Q5S007, G2019S); assay: LRRK2 G2019S enzyme inhibition, ADP-Glo kinase assay; type: biochemical; parameters: purchased SignalChem L10-12GG
How it was run: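 Purified human LRRK2 G2019S (16 ng) with 25 μM ATP and 0.2 μg substrate, 2 h at 25° C in 40 mM Tris-HCl pH 7.4, 20 mM MgCl2, 0.5 mg/ml BSA, 50 μM DTT; compound at 12 final concentrations from 50 μM downward. ADP-Glo luminescence versus solvent control gave IC50 (nM).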

[6] = system: human DYRK1A and Tau; assay: Tau phosphorylation inhibition, ClariCELL Kinase Cell-Based Assay (Carnabio)
Procedure: Tau phosphorylation inhibitory efficacy was measured using the ClariCELL™ Kinase Cell-Based Assay service of Carnabio, located in the United States. The compounds are exposed to human embryonic kidney ([…]) cells transiently expressing human DYRK1A and Tau, and then the cells are lysed to release cellular proteins. At this time, the released Tau is captured on a plate, and the degree of phosphorylation is quantified by ELISA using an antibody specific for Tau phosphorylation.

Sequence of LRRK2 (Q5S007 970-2527 limits assumed): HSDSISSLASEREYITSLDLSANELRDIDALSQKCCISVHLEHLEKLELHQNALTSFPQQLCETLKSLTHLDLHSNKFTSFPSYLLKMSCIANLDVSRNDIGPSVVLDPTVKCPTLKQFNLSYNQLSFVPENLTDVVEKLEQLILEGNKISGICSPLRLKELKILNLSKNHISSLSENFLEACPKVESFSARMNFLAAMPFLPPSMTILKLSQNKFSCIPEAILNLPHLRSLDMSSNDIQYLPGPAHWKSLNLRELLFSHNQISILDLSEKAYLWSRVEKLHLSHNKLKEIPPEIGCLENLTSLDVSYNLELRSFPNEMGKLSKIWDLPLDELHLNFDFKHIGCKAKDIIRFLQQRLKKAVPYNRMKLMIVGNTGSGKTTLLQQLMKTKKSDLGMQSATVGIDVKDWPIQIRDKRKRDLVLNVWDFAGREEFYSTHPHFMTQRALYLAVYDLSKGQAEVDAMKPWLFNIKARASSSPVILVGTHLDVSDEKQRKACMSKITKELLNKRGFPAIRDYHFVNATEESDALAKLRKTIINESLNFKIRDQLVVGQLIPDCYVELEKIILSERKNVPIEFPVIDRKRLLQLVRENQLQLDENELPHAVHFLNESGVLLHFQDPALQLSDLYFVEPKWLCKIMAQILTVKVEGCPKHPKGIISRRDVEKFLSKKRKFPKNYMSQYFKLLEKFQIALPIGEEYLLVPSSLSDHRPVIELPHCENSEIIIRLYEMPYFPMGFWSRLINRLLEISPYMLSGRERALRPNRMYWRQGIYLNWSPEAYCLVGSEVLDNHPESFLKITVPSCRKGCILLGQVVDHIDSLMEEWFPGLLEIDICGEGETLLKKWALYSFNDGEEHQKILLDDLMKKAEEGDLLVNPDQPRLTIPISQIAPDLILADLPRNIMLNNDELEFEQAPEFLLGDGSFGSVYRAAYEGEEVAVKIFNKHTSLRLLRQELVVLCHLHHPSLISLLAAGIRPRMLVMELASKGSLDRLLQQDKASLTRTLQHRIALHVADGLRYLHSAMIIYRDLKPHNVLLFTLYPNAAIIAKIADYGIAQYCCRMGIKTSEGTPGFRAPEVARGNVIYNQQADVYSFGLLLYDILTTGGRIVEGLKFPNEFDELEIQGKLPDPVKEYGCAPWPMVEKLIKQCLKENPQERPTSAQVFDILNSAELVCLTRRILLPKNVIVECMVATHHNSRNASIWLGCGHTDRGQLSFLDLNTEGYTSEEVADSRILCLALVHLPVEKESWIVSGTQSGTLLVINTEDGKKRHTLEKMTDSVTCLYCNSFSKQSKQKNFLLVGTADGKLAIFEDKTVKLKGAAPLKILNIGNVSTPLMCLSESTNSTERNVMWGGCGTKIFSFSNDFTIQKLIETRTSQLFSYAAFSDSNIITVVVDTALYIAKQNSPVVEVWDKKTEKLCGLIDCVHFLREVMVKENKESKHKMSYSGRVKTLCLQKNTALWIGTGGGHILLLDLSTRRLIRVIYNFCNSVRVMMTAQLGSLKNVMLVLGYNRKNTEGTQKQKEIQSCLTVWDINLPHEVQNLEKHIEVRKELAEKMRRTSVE
Sequence of LRRK2 (G2019S) (Q5S007 970-2527 G2019S limits assumed): as the sequence (Q5S007 970-2527 limits assumed) above, with G1050S counted along it
T2 sequence (P49759 129-484 limits assumed): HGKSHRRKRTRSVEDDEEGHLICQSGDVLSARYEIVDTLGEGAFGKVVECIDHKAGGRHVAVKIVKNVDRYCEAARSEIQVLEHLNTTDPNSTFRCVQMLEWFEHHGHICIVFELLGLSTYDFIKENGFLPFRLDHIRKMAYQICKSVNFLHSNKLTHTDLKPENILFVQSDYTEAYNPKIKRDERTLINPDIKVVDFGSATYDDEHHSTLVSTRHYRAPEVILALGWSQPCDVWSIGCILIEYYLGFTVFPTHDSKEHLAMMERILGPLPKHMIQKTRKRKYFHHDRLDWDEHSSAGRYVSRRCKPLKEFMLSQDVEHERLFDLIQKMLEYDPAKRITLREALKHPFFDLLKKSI

Work on `CCNc1cc(Nc2ccc(P3(=O)CCN(C4COC4)CC3)cc2OC)nc2[nH]cc(C(F)(F)F)c12` [Example 39, 4-(4-((4-(ethylamino)-3-(trifluoromethyl)-1H-pyrrolo[2,3-b]pyridin-6-yl)amino)-3-methoxyphenyl)-1-(oxetan-3-yl)-1,4-azaphosphinane 4-oxide] yielded an IC50 [1] of 101 to 300 nM, an IC50 [2] of 101 to 300 nM and an IC50 [3] of 301 to 1000 nM. It also gave a GI50 [4] of 301 to 1000 nM.
With `COCCNc1cc(Nc2ccc(P3(=O)CCN(C4COC4)CC3)cc2OC)nc2[nH]cc(C(F)(F)F)c12` [Example 41, 4-(3-methoxy-4-((4-((2-methoxyethyl)amino)-3-(trifluoromethyl)-1H-pyrrolo[2,3-b]pyridin-6-yl)amino)phenyl)-1-(oxetan-3-yl)-1,4-azaphosphinane 4-oxide] the IC50 [1] was less than 100 nM, the IC50 [2] was less than 100 nM and the IC50 [3] was less than 100 nM. For the same compound, the GI50 [4] was 301 to 1000 nM.
Work on `COCCNc1cc(Nc2ccc(P3(=O)CCN(C4CCOCC4)CC3)cc2OC)nc2[nH]cc(C(F)(F)F)c12` [Example 95, 4-(3-methoxy-4-((4-((2-methoxyethyl)amino)-3-(trifluoromethyl)-1H-pyrrolo[2,3-b]pyridin-6-yl)amino)phenyl)-1-(tetrahydro-2H-pyran-4-yl)-1,4-azaphosphinane 4-oxide] yielded an IC50 [1] of 101 to 300 nM, an IC50 [2] of less than 100 nM and an IC50 [3] of 101 to 300 nM. The GI50 [4] was 301 to 1000 nM, the IC50 [5] was 101 to 300 nM and the inhibition at 0.25 µM [6] was 9.5%. For the same compound, the inhibition at 0.5 µM [6] was 29.2% and the inhibition at 1 µM [6] was 33.3%.
With `O=C(c1ccc(Nc2cc(NC3CC3)c3c(C(F)(F)F)c[nH]c3n2)c2c1OCCO2)N1CCC(N2CCOCC2)CC1` [Example 163, (8-((4-(cyclopropylamino)-3-(trifluoromethyl)-1H-pyrrolo[2,3-b]pyridin-6-yl)amino)-2,3-dihydrobenzo[b] [1,4]dioxin-5-yl)(4-morpholinopiperidin-1-yl)methanone] the IC50 [1] was less than 100 nM, the IC50 [2] was 101 to 300 nM and the IC50 [3] was less than 100 nM. It also gave a GI50 [4] of 301 to 1000 nM and an IC50 [5] of less than 100 nM.
Compound `COc1cc(S(C)(=O)=O)ccc1Nc1cc(NCC(C)C)c2c(C(F)(F)F)c[nH]c2n1` [Example 190, N^4-isobutyl-N^6-(2-methoxy-4-(methylsulfonyl)phenyl)-3-(trifluoromethyl)-1H-pyrrolo[2,3-b]pyridine-4,6-diamine] has an IC50 [1] of 301 to 1000 nM, an IC50 [2] of 301 to 1000 nM and an IC50 [3] of 301 to 1000 nM. The IC50 [5] was 301 to 1000 nM.
For `COc1cc(S(C)(=O)=O)ccc1Nc1cc(NCCS(C)(=O)=O)c2c(C(F)(F)F)c[nH]c2n1` [Example 193, N^6-(2-methoxy-4-(methylsulfonyl)phenyl)-N^4-(2-(methylsulfonyl)ethyl)-3-(trifluoromethyl)-1H-pyrrolo[2,3-b]pyridine-4,6-diamine], the IC50 [1] was 301 to 1000 nM, the IC50 [2] was less than 100 nM and the IC50 [3] was less than 100 nM. For the same compound, the IC50 [5] was 301 to 1000 nM.
`CCCNc1cc(Nc2ccc(S(C)(=O)=O)cc2OC)nc2[nH]cc(C(F)(F)F)c12` [Example 200, N^6-(2-methoxy-4-(methylsulfonyl)phenyl)-N^4-propyl-3-(trifluoromethyl)-1H-pyrrolo[2,3-b]pyridine-4,6-diamine] was tested, and the IC50 [1] was 301 to 1000 nM, the IC50 [2] was 301 to 1000 nM and the IC50 [3] was 301 to 1000 nM. It also gave an IC50 [5] of 301 to 1000 nM.
`COCCNc1cc(Nc2ccc(S(C)(=O)=O)cc2OC)nc2[nH]cc(C(F)(F)F)c12` [Example 201, N^6-(2-methoxy-4-(methylsulfonyl)phenyl)-N^4-(2-methoxyethyl)-3-(trifluoromethyl)-1H-pyrrolo[2,3-b]pyridine-4,6-diamine] gave an IC50 [1] of 101 to 300 nM, an IC50 [2] of 301 to 1000 nM and an IC50 [3] of 301 to 1000 nM. It also gave an IC50 [5] of 301 to 1000 nM.
`CCNc1cc(Nc2ccc(P(C)(=O)N3CCC(N4CCOCC4)CC3)cc2OC)nc2[nH]cc(C(F)(F)F)c12` (stereo not shown) [Example 208, (4-((4-(ethylamino)-3-(trifluoromethyl)-1H-pyrrolo[2,3-b]pyridin-6-yl)amino)-3-methoxyphenyl) (methyl)(4-morpholinopiperidin-1-yl)phosphine oxide] was tested, and the IC50 [1] was less than 100 nM, the IC50 [2] was 101 to 300 nM and the IC50 [3] was less than 100 nM. It also gave an IC50 [5] of less than 100 nM.
In the case of `CCNc1cc(Nc2ccc(P(C)(C)=O)cc2OC)nc2[nH]cc(C(F)(F)F)c12` [Example 209, (4-((4-(ethylamino)-3-(trifluoromethyl)-1H-pyrrolo[2,3-b]pyridin-6-yl)amino)-3-methoxyphenyl) dimethylphosphine oxide], the IC50 [1] is reported as less than 100 nM, the IC50 [2] is reported as 101 to 300 nM and the IC50 [3] is reported as 301 to 1000 nM. For the same compound, the IC50 [5] was less than 100 nM.
With `CCNc1cc(Nc2ccc(C(=O)N3CC[C@H](N4CCOCC4)C3)c3c2OCC3)nc2[nH]cc(C(F)(F)F)c12` [Example 215, (S)-(7-((4-(ethylamino)-3-(trifluoromethyl)-1H-pyrrolo[2,3-b]pyridin-6-yl)amino)-2,3-dihydrobenzofuran-4-yl)(3-morpholinopyrrolidin-1-yl)methanone] the IC50 [1] was less than 100 nM, the IC50 [2] was less than 100 nM and the IC50 [3] was less than 100 nM. It also gave an IC50 [5] of less than 100 nM, an inhibition at 0.25 µM [6] of 30% and an inhibition at 0.5 µM [6] of 70.8%. The inhibition at 1 µM [6] was 82%.
`COc1cc(S(C)(=O)=O)ccc1Nc1cc(C2CC2)c2c(C#N)c[nH]c2n1` [Example 229, 4-cyclopropyl-6-((2-methoxy-4-(methylsulfonyl)phenyl)amino)-1H-pyrrolo[2,3-b]pyridine-3-carbonitrile] gave an IC50 [1] of 101 to 300 nM, an IC50 [2] of 301 to 1000 nM and an IC50 [3] of 301 to 1000 nM. It also gave an IC50 [5] of 301 to 1000 nM.
Compound `CCNc1cc(Nc2ccc(C(=O)N3CCOCC3)c3c2OCO3)nc2[nH]cc(C(F)(F)F)c12` [Example 236, (7-((4-(ethylamino)-3-(trifluoromethyl)-1H-pyrrolo[2,3-b]pyridin-6-yl)amino)benzo[d][1,3]dioxol-4-yl)(morpholino) methanone] has an IC50 [1] of less than 100 nM, an IC50 [2] of less than 100 nM and an IC50 [3] of less than 100 nM. For the same compound, the IC50 [5] was 101 to 300 nM.
For `CNc1cc(Nc2ccc(S(=O)(=O)N3CCC(N4C[C@@H]5C[C@H]4CO5)CC3)cc2OC)nc2[nH]cc(C(F)(F)F)c12` [Example 242, N^6-(4-((4-((1S,4S)-2-oxa-5-azabicyclo[2.2.1]heptan-5-yl)piperidin-1-yl)sulfonyl)-2-methoxyphenyl)-N^4-methyl-3-(trifluoromethyl)-1H-pyrrolo[2,3-b]pyridine-4,6-diamine], the IC50 [1] was less than 100 nM, the IC50 [2] was less than 100 nM and the IC50 [3] was less than 100 nM. It also gave an IC50 [5] of less than 100 nM, an inhibition at 0.25 µM [6] of 49.8% and an inhibition at 0.5 µM [6] of 77.2%. It also gave an inhibition at 1 µM [6] of 108%.
With `CCNc1cc(Nc2ccc(C(=O)N3CCN(C4CC4)CC3)c3c2OCC3)nc2[nH]cc(C(F)(F)F)c12` [Example 250, (4-cyclopropylpipe razin-1-yl)(7-((4-(ethylamino)-3-(trifluoromethyl)-1H-pyrrolo[2,3-b]pyridin-6-yl)amino)-2,3-dihydrobenzofuran-4-yl)methanone] the IC50 [2] was 101 to 300 nM, the IC50 [3] was less than 100 nM and the IC50 [5] was 101 to 300 nM. The inhibition at 0.25 µM [6] was 34%, the inhibition at 0.5 µM [6] was 59.8% and the inhibition at 1 µM [6] was 82.8%.
Work on `C=CCNc1cc(Nc2ccc(C(=O)N3CCC(N4CCOCC4)CC3)c3c2OCC3)nc2[nH]cc(C(F)(F)F)c12` [Example 255, (7-((4-(allylamino)-3-(trifluoromethyl)-1H-pyrrolo[2,3-b]pyridin-6-yl)amino)-2,3-dihydrobenzofuran-4-yl)(4-morpholinopiperidin-1-yl)methanone] yielded an IC50 [2] of less than 100 nM, an IC50 [3] of less than 100 nM and an IC50 [5] of less than 100 nM. It also gave an inhibition at 0.25 µM [6] of 47.7%, an inhibition at 0.5 µM [6] of 89.2% and an inhibition at 1 µM [6] of 104%.
